Patent US20190134234A1, “COMPOSITION FOR STABILIZING RADIOCHEMICAL PURITY OF [18F] FLUORO-DOPA AND METHOD FOR PREPARING SAME” (CI-CO HEALTHCARE CO., LTD., priority 2015, published 2019)

How the values were obtained:
[1] = IASOdopa SPC; cited from earlier work
[2] = Radiochemical purity by HPLC after neutralization with sodium bicarbonate, standing at room temperature; type: physicochemical; details: for radiochemical purity: room temperature; for impurities generated (HPLC chromatogram): pH 7, room temperature, no ethanol
Protocol: [^18F]fluoro-dopa (radiochemical purity 100%) was prepared according to known procedures (see Appl. Radiat. Isot. 672009 1650-1653), the initial hydrogen ion concentration of the prepared [^18F]fluoro-dopa (radiochemical purity 100%) is 4. This was formulated into physiological saline, and hydrogen ion concentration was adjusted to 6, 7, and 8, respectively, using sodium bicarbonate. Each time the solution was allowed to stand at room temperature (or at room temperature) for 0, 2, 4 and 6 hours, high-performance liquid chromatograph (HPLC) was used to measure the radiochemical purity. […]
[^18F]fluoro-dopa (radiochemical purity 100%) was prepared according to known procedures (see: Appl. Radiat. Isot. 67 2009 1650-1653), and the hydrogen ion concentration was adjusted to 7 (pH 7) using sodium bicarbonate after preparation with physiological saline. The determination of whether the radiochemical purity was generated was confirmed by measurement using HPLC (high-performance liquid chromatography) after 2 and 6 hours at room temperature. The results are illustrated in FIGS. 1 and 2. […]

[3] = Radiochemical purity of [18F]FDG by TLC after pH adjustment, standing at room temperature; type: physicochemical; details: for radiochemical purity: room temperature
Protocol: [^18F]FDG (radiochemical purity 100%) was prepared according to known procedure (Ind. J. Appl. Radiatl Isot 35 1984 985-986) was formulated with physiological saline and hydrogen ion concentration was adjusted to 6, 7, and 8, respectively, using sodium bicarbonate, and then was allowed to stand at room temperature for 0, 2, 4, and 6 hours.

Structure (SMILES) | radiochemical purity ([2]; pH 6, 0 hour, HPLC) [%] | radiochemical purity ([2]; pH 6, 2 hours, HPLC) [%] | radiochemical purity ([2]; pH 6, 4 hours, HPLC) [%] | radiochemical purity ([2]; pH 6, 6 hours, HPLC) [%] | radiochemical purity ([2]; pH 7, 0 hour, HPLC) [%] | radiochemical purity ([2]; pH 7, 2 hours, HPLC) [%] | radiochemical purity ([2]; pH 7, 4 hours, HPLC) [%] | radiochemical purity ([2]; pH 7, 6 hours, HPLC) [%] | radiochemical purity ([2]; pH 8, 0 hour, HPLC) [%] | radiochemical purity ([2]; pH 8, 2 hours, HPLC) [%] | radiochemical purity ([2]; pH 8, 4 hours, HPLC) [%] | radiochemical purity ([2]; pH 8, 6 hours, HPLC) [%] | further results
N[C@@H](Cc1cc(O)c(O)cc1[18F])C(=O)O [[^18F]fluoro-dopa, L-6-[^18F]FLUORO-3,4-DIHYDROXYPHENYLALANINE] | 100 | 96.66 | 92.6 | 87.95 | 100 | 92.02 | 78.67 | 63.81 | 99.73 | 91.14 | 76.58 | 51.78 | pH at which it is oxidized [1]: ≥ 4.5; impurities generated (HPLC chromatogram) ([2]; 2 hours after neutralization): the first impurity (IMP 1) was generated; impurities generated (HPLC chromatogram) ([2]; 6 hours after neutralization): the first impurity (IMP 1) and the second purity (IMP 2) were generated
Cc1cn([C@H]2C[C@H]([18F])[C@@H](CO)O2)c(=O)[nH]c1=O [[^18F]FLT] | 100 | 100 | 99.78 | 100 | 100 | 100 | 100 | 100 | 99.15 | 100 | 99.29 | 100 | radiochemical purity over time at a neutral pH ([2]; pH 6 to 8, physiological saline, up to 6 hours, HPLC): ≥ 90%
OC[C@H]1OC(O)[C@H]([18F])[C@@H](O)[C@@H]1O (some centres unmarked) [[^18F]FDG] | – | – | – | – | – | – | – | – | – | – | – | – | radiochemical purity ([3]; pH 6, 0 hour): 99.07%; radiochemical purity ([3]; pH 6, 2 hours): 98.04%; radiochemical purity ([3]; pH 6, 4 hours): 98.12%; radiochemical purity ([3]; pH 6, 6 hours): 99.12%; radiochemical purity over time at a neutral pH ([3]; pH 6 to 8, physiological saline, up to 6 hours): ≥ 90%; radiochemical purity ([3]; pH 7, 0 hour): 99.23%; radiochemical purity ([3]; pH 7, 2 hours): 100%; radiochemical purity ([3]; pH 7, 4 hours): 99.46%; radiochemical purity ([3]; pH 7, 6 hours): 98.12%; radiochemical purity ([3]; pH 8, 0 hour): 99.78%; radiochemical purity ([3]; pH 8, 2 hours): 99.01%; radiochemical purity ([3]; pH 8, 4 hours): 99.89%; radiochemical purity ([3]; pH 8, 6 hours): 100%
